As usually defined, the IC50 is the concentration needed to halve the response being measured. A lower IC50 goes with higher potency.

Molecules are shown by their SMILES. Converted amounts (≈) assume the structure as drawn. Where a name gives a salt, the structure may show the parent alone. Read-outs that look alike come from different tables or passages of the source.

We go through 7 compounds from patent publication US20160220510A1, “ANTIBIOTIC COMPOUNDS THAT INHIBIT BACTERIAL PROTEIN SYNTHESIS” (The Board of Regents of the University of Texas System, priority 2015, published 2016).

Assay [1] relates to P. aeruginosa aminoacylation/translation (A/T) protein synthesis system (ribosomes, PheRS, EF-Tu, EF-Ts, EF-G). Nature of the assay: aminoacylation/translation (A/T) scintillation proximity assay. The conditions noted are these: all P. aeruginosa components. The format is biochemical, Pseudomonas aeruginosa. The procedure: A scintillation proximity assay (SPA) was developed using P. aeruginosa components for the aminoacylation/translation (A/T) assay as described in Ribble et al. The complete assay (50 μl) contained 50 mM Tris-HCl (pH 7.5), 25 mM KCl, 10 mM MgCl2, 0.03 mM spermine, 1.5 mM ATP, 0.5 mM GTP, 40 μM [^3H]Phenylalanine (Phe) (75 cpm/pmol) and 0.3 mg/ml polyU mRNA. To maintain constant levels of ATP and GTP the assay contained a nucleotide regeneration system composed of 4 mM phosphoenolpyruvate (PEP) and 0.025 Units/μl pyruvate kinase (PK). The concentration of ribosomes and proteins in the assay were as follows: ribosome (0.2 μM), PheRS (0.1 μM), EF-Tu (1 μM), EF-Ts (0.05 μM) and EF-G (0.2 μM). These concentrations were arrived at through sequential rounds of optimization: each concentration represents the concentration just below the saturation point for each component of the reaction in the titration.
The screening reactions were carried out in 96 well microtiter plates (Costar). Test compounds were equilibrated by addition of 33 μl of the protein/substrate mix (without tRNA) to 2 μl of chemical compound (3.2 mM) dissolved in 100% DMSO. […] Reactions were stopped by the addition of 5 μl of 0.5 M EDTA. 200 μg of SPA beads (RNA Binding Beads (YSI), Perkin Elmer) in 150 μl of 300 mM citrate buffer (pH 6.2) were added. The plates were analyzed using a 1450 Microbeta (Jet) liquid scintillation and luminescence counter (Wallac). Assays to determine IC50 values were as described above with the test compounds serially diluted from 200 μM to 0.4 μM. The concentration ranges of antibiotics as controls were as follows: spiramycin (0.02 μM to 20.0 μM), tylosin (0.02 μM to 20.0 μM), and fusidic acid (4 μM to 512 μM).
In general terms: In a scintillation proximity assay essentially only radioactivity close to the scintillant gives light.

Another assay deals with E. coli (ATCC 25922). Nature of the assay: Broth microdilution MIC. The format is cell-based. The settings on record: Escherichia coli. A general note: Dilution methods test growth across graded concentrations, often in twofold steps.
A further assay deals with E. coli tolC mutant. In words: Broth microdilution MIC. Format: cell-based. The settings on record: Escherichia coli, read-out: MIC E. coli tolC (efflux).
Assay [2] deals with Enterococcus faecalis (ATCC 29212). Nature of the assay: Broth microdilution MIC. The format is cell-based.
Assay [3] concerns Haemophilus influenzae (ATCC 49766). Nature of the assay: Broth microdilution MIC. Format: cell-based. The conditions noted are these: ATCC49766.
In assay [4] the test system is Moraxella catarrhalis (ATCC 25238). Nature of the assay: Broth microdilution MIC. The format is cell-based. The settings on record: ATCC25238.
The test system of assay [5] is Pseudomonas aeruginosa (ATCC 47085). In words: Broth microdilution MIC. The format is cell-based.
Assay [6] relates to Pseudomonas aeruginosa hypersensitive strain (ATCC 35151). In words: Broth microdilution MIC. The format is cell-based. The settings on record: ATCC35151, read-out: MIC P. aeruginosa (hypersensitive).
Assay [7] has as its system Staphylococcus aureus (ATCC 29213). In words: Broth microdilution MIC. The format is cell-based. The conditions noted are these: ATCC29213, read-out: MIC S. aureus.
Assay [8] concerns Streptococcus pneumonia (ATCC 49619). In words: Broth microdilution MIC. The format is cell-based. The conditions noted are these: Streptococcus pneumoniae.
Assay [9] deals with Gram (+) bacteria (E. faecalis or S. aureus). Nature of the assay: Time-kill experiments, Gram (+). The settings on record: four-times the MIC, 0 to 24 hours.
Procedure: (§1) Time-kill experiments were performed according to the CLSI guidelines M26-A. H. influenzae (ATCC 49766), E. faecalis ATCC 29212, and Staphylococcus aureus (ATCC 29213) were from the American Type Culture Collection (Manassas, Va.). Growth media were Brain Heart Infusion and Trypticase Soy Broth from Remel (Lenexa, Kans.). For the experiments, 10 mL of broth medium was inoculated with 0.1 mL of a fresh overnight culture and grown at 35° C. with shaking (200 rpm) for 2-3 hours. Pre-warmed flasks containing 10 mL of medium alone or 10 mL of medium containing a test compound at 4×MIC were then inoculated with 0.1 mL of the exponentially growing cultures. Samples were removed at 0, 2, 4, 6, and 24 h, and serial dilutions were plated on blood agar to allow for colony enumeration and calculation of the live cell density.
(§2) Time-kill experiments were performed according to the CLSI guideline M26-A to determine the efficacy against both Gram (+) and a Gram (−) organisms. […] The Gram (+) bacteria used was either E. faecalis or S. aureus, while the Gram (−) bacteria was H. influenzae. […] The compounds were tested in these assays at four-times the MIC and between 0 and 24 hours.
Another assay relates to H. influenzae. Nature of the assay: Time-kill experiments, Gram (−). The conditions noted are these: four-times the MIC, 0 to 24 hours.
In the next assay the target is P. aeruginosa PheRS (Pseudomonas aeruginosa, UniProt Q9I0A3+Q9I0A4). Nature of the assay: PheRS tRNA aminoacylation SPA assay. Format: biochemical. The conditions noted are these: for Inhibition of Phenylalanyl-tRNA synthetase (PheRS), target found: 132 μM compound. The method, then:
SPA assays to determine inhibition of PheRS by chemical compounds were as described in Bullard et al. “Expression and characterization of a human mitochondrial phenylalanyl-tRNA synthetase” 1999, J. Mol. Biol. 288:567-577, which his incorporated herein by reference and in Ribble et al. Exceptions were that the enzyme mix was pre-incubated with 132 μM compound for 15 min prior to addition of tRNA. The reactions were stopped by the addition of 5 μl of 0.5 M EDTA. 400 μg of SPA beads (Ysi poly-L-lysine coated beads, Perkin Elmer) in 150 μl of 300 mM citrate buffer (pH 2.0) were added and the plates were analyzed as above.

The subject of a further assay is ribosome. In words: Determination of molecular target (ribosome by default). Format: biochemical, Pseudomonas aeruginosa. The conditions noted are these: no accessory protein inhibited. The method, then: Nitrocellulose binding assays were used to determine inhibition of GDP exchange by EF-Tu as previously described in Bullard et al. “Effects of domain exchanges between Escherichia coli and mammalian mitochondrial EF-Tu on interactions with guanine nucleotides, aminoacyl-tRNA and ribosomes” 1999, Biochim. Biophys. Acta 1446:102-114, which is incorporated herein by reference, with the exception that the enzyme (1 μM) was pre-incubated with 132 μM compound for 15 min prior to the addition of [^3H]GDP. EF-Ts stimulates the exchange of GDP bound by EF-Tu. The ability of compounds to inhibit EF-Ts stimulation of GDP exchange by EF-Tu was measured in assays as described for EF-Tu/GDP exchange with the exceptions that EF-Ts was present at 0.05 μM and the time for the reaction was decreased from 30 min to 30 sec.
Assays for ribosome-dependent GTP hydrolysis by EF-G were carried out in 50 μl reactions containing: 50 mM Tris-HCl (pH 7.5), 10 mM MgCl2, 70 mM NH4Cl, 1 mM dithiothreitol (DTT), 1.8 mM GTP, 0.4 μM P. aeruginosa ribosomes and 0.2 μM EF-G. Final concentrations of compounds in the assays were 132 μM. The amount of GTPase activity was determined by measurement of the amount of Pi liberated using a colorimetric GTPase assay kit (Novus Biologicals) per manufacturer's directions.

[10] abbreviates: ATCC25922, ATCC 25922, read-out: MIC E. coli.
[11] abbreviates: ATCC29212, ATCC 29212, read-out: MIC E. faecalis.
The mark [12] stands for this setting: ATCC47085, ATCC 47085, read-out: MIC P. aeruginosa.
Setting [13] is: ATCC49619, ATCC 49619, read-out: MIC S. pneumo.

P. aeruginosa PheRS, sequence (Q9I0A3 whole entry): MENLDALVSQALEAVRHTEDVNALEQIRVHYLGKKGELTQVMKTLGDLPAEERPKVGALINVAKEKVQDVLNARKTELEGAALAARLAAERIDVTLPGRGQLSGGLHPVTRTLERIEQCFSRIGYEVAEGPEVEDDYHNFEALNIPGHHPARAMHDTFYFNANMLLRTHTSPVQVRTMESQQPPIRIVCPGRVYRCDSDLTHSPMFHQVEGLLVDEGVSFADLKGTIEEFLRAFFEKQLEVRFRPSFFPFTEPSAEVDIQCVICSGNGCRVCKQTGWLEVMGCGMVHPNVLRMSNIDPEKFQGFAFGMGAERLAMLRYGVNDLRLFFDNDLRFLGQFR
P. aeruginosa PheRS, sequence (Q9I0A4 whole entry): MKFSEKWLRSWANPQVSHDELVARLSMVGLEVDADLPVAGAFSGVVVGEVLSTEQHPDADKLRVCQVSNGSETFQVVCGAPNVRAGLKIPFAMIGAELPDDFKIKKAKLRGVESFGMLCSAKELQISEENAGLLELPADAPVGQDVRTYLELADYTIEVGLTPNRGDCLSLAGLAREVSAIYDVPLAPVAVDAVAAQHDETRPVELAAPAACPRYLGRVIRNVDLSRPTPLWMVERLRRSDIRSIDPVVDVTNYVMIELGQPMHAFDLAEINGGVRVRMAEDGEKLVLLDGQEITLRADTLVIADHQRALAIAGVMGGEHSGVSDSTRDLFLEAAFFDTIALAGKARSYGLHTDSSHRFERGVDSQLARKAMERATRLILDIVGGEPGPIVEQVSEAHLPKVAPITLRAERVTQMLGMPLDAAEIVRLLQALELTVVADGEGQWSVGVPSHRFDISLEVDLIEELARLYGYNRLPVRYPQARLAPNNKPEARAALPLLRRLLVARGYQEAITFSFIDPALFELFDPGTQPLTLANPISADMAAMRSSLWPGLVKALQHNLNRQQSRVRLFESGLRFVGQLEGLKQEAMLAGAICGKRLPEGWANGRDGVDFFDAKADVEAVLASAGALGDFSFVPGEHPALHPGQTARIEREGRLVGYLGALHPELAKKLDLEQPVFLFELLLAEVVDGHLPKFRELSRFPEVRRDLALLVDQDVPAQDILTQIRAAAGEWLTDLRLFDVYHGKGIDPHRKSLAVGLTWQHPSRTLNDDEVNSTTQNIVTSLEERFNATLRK
Procedure for H. influenzae: as §1, §2

Turning to `NC(N)=NN=C(/C=C/c1ccc([N+](=O)[O-])o1)/C=C/c1ccc([N+](=O)[O-])o1` [Class 5, 2-[1,5-bis(5-nitrofuran-2-yl)penta-1,4-dien-3-ylideneamino]guanidine hydrochloride], the IC50 in assay [1] was found to be 27.5 µM. The MIC was > 128 µg/mL in the assay with E. coli (ATCC 25922) (setting [10]); 2 µg/mL in the assay on E. coli tolC mutant; 128 µg/mL in assay [2] (setting [11]); 16 µg/mL in assay [3]; 64 µg/mL in assay [4]; 128 µg/mL in [5] (setting [12]). Moreover, the MIC in [6] was determined as 4 µg/mL; in assay [7], 16 µg/mL; in assay [8] (setting [13]), 32 µg/mL. Further, in [9], the “Time-kill mode of action against Gram (+) bacteria” value (shortened to “Time-kill mode … (+) bacteria”) is on record as “bactericidal”. Moreover, the “Time-kill mode of action against Gram (−) bacteria” value (“Time-kill mode … (−) bacteria” for short) with H. influenzae is “bactericidal”.

Consider `O=C(/C=C/c1ccccc1)c1ccc(O)cc1O` [Class 1, (2E)-1-(2,4-Dihydroxyphenyl)-3-phenyl-2-propen-1-one], for which the 50% inhibitory concentration (IC50) worked out at 33 µM in [1] and 37 µM against P. aeruginosa PheRS. Also, the “Inhibition of Phenylalanyl-tRNA synthetase (PheRS), target found” value (“Inhibition” below) on P. aeruginosa PheRS is reported as “inhibit”. Moreover, the MIC with E. coli (ATCC 25922) (ATCC25922, read-out: MIC E. coli) was > 128 µg/mL; in the assay with E. coli tolC mutant, > 128 µg/mL; in assay [2] (ATCC29212, read-out: MIC E. faecalis), > 128 µg/mL; in assay [3] it was 32 µg/mL (≈ 133 µM); in assay [4], 64 µg/mL (≈ 266 µM); in assay [5] (ATCC47085, read-out: MIC P. aeruginosa) it was > 128 µg/mL. Also, the MIC in assay [6] was > 128 µg/mL; in assay [7], 128 µg/mL (≈ 533 µM); in assay [8] (ATCC49619, read-out: MIC S. pneumo), > 128 µg/mL. In addition, the “Time-kill mode … (+) bacteria” value in [9] is given as “bactericidal”. In the assay with H. influenzae, the “Time-kill mode … (−) bacteria” value was “bactericidal”.

As for `COC(=O)c1c(C)c2c(c(C)c1O)OC(=O)c1c(C)c(Cl)c(O)c(Cl)c1O2` [Class 2, Methyl 2,4-dichloro-3,8-dihydroxy-1,6,9-trimethyl-11-oxo-11H-dibenzo[b,e][1,4]dioxepine-7-carboxylate], the IC50 was 59 µM in assay [1] and 9.8 µM on P. aeruginosa PheRS. Moreover, the “Inhibition” value on P. aeruginosa PheRS was “inhibit”. In addition, the MIC with E. coli (ATCC 25922) (setting [10]) was > 128 µg/mL; in the assay on E. coli tolC mutant, 16 µg/mL (≈ 38.7 µM); in [2] (setting [11]) it was 8 µg/mL (≈ 19.4 µM); in [3] it was 32 µg/mL (≈ 77.4 µM); in assay [4], 1 µg/mL (≈ 2.42 µM); in assay [5] (setting [12]), 128 µg/mL (≈ 310 µM). The values for the MIC in assay [6], in assay [7] and in assay [8] (setting [13]) were 8 µg/mL (≈ 19.4 µM), 128 µg/mL (≈ 310 µM) and 64 µg/mL (≈ 155 µM), respectively. The “Time-kill mode … (+) bacteria” value in assay [9] is “bacteriostatic”. Further, the “Time-kill mode … (−) bacteria” value in the assay on H. influenzae was “bacteriostatic”.

With `O=C(N/N=C/c1ccc([N+](=O)[O-])o1)c1cc([N+](=O)[O-])cc([N+](=O)[O-])c1O` [N-[(1E)-2-(5-nitro(2-furyl))-1-azavinyl](2-hydroxy-3,5-dinitrophenyl)carboxamide], at P. aeruginosa PheRS, the “Inhibition” value is given as “inhibit”.

Consider `O=C(N/N=C/c1ccc([N+](=O)[O-])o1)c1cc([N+](=O)[O-])cc([N+](=O)[O-])c1O` [Class 4, N-[(1E)-2-(5-nitro(2-furyl))-1-azavinyl](2-hydroxy-3,5-dinitrophenyl)carboxamide], for which the figures for the IC50 (in assay [1]; against P. aeruginosa PheRS) were 50.2 µM and 40 µM, respectively. Also, the MIC is > 128 µg/mL in the assay on E. coli (ATCC 25922) (setting [10]); 2 µg/mL (≈ 5.48 µM) in the assay with E. coli tolC mutant; 128 µg/mL (≈ 350 µM) in assay [2] (setting [11]); 32 µg/mL (≈ 87.6 µM) in [3]; 32 µg/mL (≈ 87.6 µM) in assay [4]; 32 µg/mL (≈ 87.6 µM) in [5] (setting [12]). Also, the MIC worked out at 32 µg/mL (≈ 87.6 µM) in [6], 32 µg/mL (≈ 87.6 µM) in assay [7] and 128 µg/mL (≈ 350 µM) in assay [8] (setting [13]). For the same compound, the “Time-kill mode … (+) bacteria” value in assay [9] is “bacteriostatic”. Also, in the assay on H. influenzae, the “Time-kill mode … (−) bacteria” value is “bacteriostatic”.

For `NC(N)=NN=C(/C=C/c1ccc([N+](=O)[O-])o1)/C=C/c1ccc([N+](=O)[O-])o1` [2-[1,5-bis(5-nitrofuran-2-yl)penta-1,4-dien-3-ylideneamino]guanidine hydrochloride], the “Target found: ribosomal inhibitor” value in the assay with ribosome is listed as “ribosomal inhibitor”.

As to `Cc1cc(C)nc(NC(=N)Nc2ccc(OCc3ccc(Cl)cc3)cc2)n1` [Class 6, (4,6-dimethylpyrimidin-2-yl)[({4-[(4-chlorophenyl)methoxy]phenyl}amino)iminomethyl]amine], 25.8 µM corresponded to half-maximal inhibition in assay [1] (IC50). In addition, the MIC in the assay with E. coli (ATCC 25922) (setting [10]) was determined as 64 µg/mL (≈ 168 µM); with E. coli tolC mutant it was 16 µg/mL (≈ 41.9 µM); in [2] (setting [11]), 16 µg/mL (≈ 41.9 µM); in [3] it was 32 µg/mL (≈ 83.8 µM); in assay [4], 64 µg/mL (≈ 168 µM); in assay [5] (setting [12]), 64 µg/mL (≈ 168 µM). The MIC turned out to be 16 µg/mL (≈ 41.9 µM) in assay [6], 32 µg/mL (≈ 83.8 µM) in [7] and 32 µg/mL (≈ 83.8 µM) in assay [8] (setting [13]). In the assay on ribosome, the “Target found: ribosomal inhibitor” value was “ribosomal inhibitor”. Besides, in [9], the “Time-kill mode … (+) bacteria” value is recorded as “bactericidal”. Also, in the assay on H. influenzae, the “Time-kill mode … (−) bacteria” value is given as “bactericidal”.
